# Measurements published in patent US20250032454A1, “KDM1A INHIBITORS FOR THE TREATMENT OF DISEASE” (Imago Biosciences, Inc., priority 2021, published 2025).
# Molecular target: LSD1 (Homo sapiens, UniProt O60341)
# Test: LSD1 fluorescence coupling enzyme assay (HRP/Amplex Red, H3(1-21)K4me2 peptide), 10-dose IC50
# Format: biochemical
# Conditions: 10 μM histone H3(1-21)K4me2 peptide substrate, 3-fold serial dilution from 100 μM
# Description: Assaying the inhibition of KDM1A can be determined in vitro, in cultured cells, and in animals. There are a variety of spectrophotometric methods to detect the results of demethylation of methylated lysines, viz., detecting the products of KDM1A demethylase oxidative activity on a peptide fragment of at least 18 amino acids representing the N-terminus of the histone H3 substrate that contains a monomethyl at the fourth lysine residue. Hydrogen peroxide, one product of the KDM1A demethylase reaction, reacts with horseradish peroxidase and dihydroxyphenoxazine (ADHP) to produce the fluorescent compound resorufin (excitation=530-560 nm: emission=590 nm). The KDM1A demethylase enzyme activity can be obtained from mammalian cells or tissues expressing KDM1A from an endogenous or recombinant gene and purified or assayed from a whole cell extract. These methods can be used to determine the concentration of the disclosed compounds can inhibit fifty percent of the enzyme activity (IC50).
# Alternatively, the production of H2O2 during the KDM1A reaction can be detected fluometrically. In this system, the production of H2O2 is detected in the HDM assay buffer after exposure to substrate, co-factor and enzyme using ADHP (10-Acetyl-3, 7-dihydroxyphenoxazine) as a fluorogenic substrate for horse radish peroxidase (HRP). […] The florescent product is resorufin. Sensitivity can be as low as 10-15 M of target protein. The signal is read using a fluorescence microplate reader at excitation and emission wavelengths of 530-560 nm and 590 nm, respectively.
# Compounds were tested in a 10-dose IC50 mode fluorescence coupling enzyme assay with 3-fold serial dilution in duplicate starting at 100 μM. The production of FAD-dependent H2O2 as a result of demethylase activity of LSD1 on 10 μM histone H3(1-21)K4me2 peptide substrate was measured by coupling with HRP and Amplex Red to yield resorufin (fluorescence measured at Ex/Em=535/590 nm on EnVision, Perkin Elmer).
row,Compound,IC50
1,"N#Cc1ccc(-c2cc(NC[C@@H]3CCCNCC3)nn2-c2ccc(N3CCS(=O)(=O)CC3)cc2F)cc1F [Example 106, (R)-4-(3-((azepan-4-ylmethyl)amino)-1-(4-(1,1-dioxidothiomorpholino)-2-fluorophenyl)-1H-pyrazol-5-yl)-2-fluorobenzonitrile]",< 500 nM
2,"N#Cc1ccc(-c2cc(NCC3CCCNCC3)nn2-c2ccc(N3CCS(=O)(=O)CC3)cc2F)cc1F (centres unmarked) [Example 107, 4-(3-((azepan-4-ylmethyl)amino)-1-(4-(1,1-dioxidothiomorpholino)-2-fluorophenyl)-1H-pyrazol-5-yl)-2-fluorobenzonitrile]",< 500 nM
3,"N#Cc1ccc(-c2cc(NCC3CNCCO3)nn2-c2ccc(N3CCS(=O)(=O)CC3)cc2F)cc1F (centres unmarked) [Example 108, 4-(1-(4-(1,1-dioxidothiomorpholino)-2-fluorophenyl)-3-((morpholin-2-ylmethyl)amino)-1H-pyrazol-5-yl)-2-fluorobenzonitrile 2,2,2-trifluoroacetate]",< 500 nM
4,"CN1CCN(c2ccc(-n3nc(NC[C@H]4CCC[C@H](N)C4)cc3-c3ccc(C#N)c(F)c3)c(F)c2)CC1=O [Example 109, 4-(3-((((1S,3S)-3-aminocyclohexyl)methyl)amino)-1-(2-fluoro-4-(4-methyl-3-oxopiperazin-1-yl)phenyl)-1H-pyrazol-5-yl)-2-fluorobenzonitrile]",< 500 nM
5,"N#Cc1ccc(-c2cc(NCC3CCCNCC3)nn2-c2ccc(N3CCS(=O)(=O)CC3)c(F)c2)cc1F (centres unmarked) [Example 110, 4-(3-((azepan-4-ylmethyl)amino)-1-(4-(1,1-dioxidothiomorpholino)-3-fluorophenyl)-1H-pyrazol-5-yl)-2-fluorobenzonitrile 2,2,2-trifluoroacetate]",< 500 nM
6,"N#Cc1ccc(-c2cc(NC[C@@H]3CCCNCC3)nn2-c2ccc(N3CCS(=O)(=O)CC3)c(F)c2)cc1F [Example 111, (R)-4-(3-((azepan-4-ylmethyl)amino)-1-(4-(1,1-dioxidothiomorpholino)-3-fluorophenyl)-1H-pyrazol-5-yl)-2-fluorobenzonitrile 2,2,2-trifluoroacetate]",< 500 nM
7,"COc1cc(N2CCS(=O)(=O)CC2)ccc1-n1nc(NC[C@H]2CCCNCC2)cc1-c1ccc(C#N)c(F)c1 [Example 112, (S)-4-(3-((azepan-4-ylmethyl)amino)-1-(4-(1,1-dioxidothiomorpholino)-2-methoxyphenyl)-1H-pyrazol-5-yl)-2-fluorobenzonitrile 2,2,2-trifluoroacetate]",< 500 nM
8,"COc1cc(N2CCS(=O)(=O)CC2)ccc1-n1nc(NC[C@@H]2CCCNCC2)cc1-c1ccc(C#N)c(F)c1 [Example 113, (R)-4-(3-((azepan-4-ylmethyl)amino)-1-(4-(1,1-dioxidothiomorpholino)-2-methoxyphenyl)-1H-pyrazol-5-yl)-2-fluorobenzonitrile 2,2,2-trifluoroacetate]",< 500 nM
9,"COc1cc(N2CCC(OC)CC2)ccc1-n1nc(NC[C@H]2CCC[C@H](N)C2)cc1-c1ccc(C#N)c(F)c1 [Example 114, 4-(3-((((1S,3S)-3-aminocyclohexyl)methyl)amino)-1-(2-methoxy-4-(4-methoxypiperidin-1-yl)phenyl)-1H-pyrazol-5-yl)-2-fluorobenzonitrile 2,2,2-trifluoroacetate]",< 500 nM
10,"COc1cc(N2CCC(C)(O)CC2)ccc1-n1nc(NC[C@H]2CCC[C@H](N)C2)cc1-c1ccc(C#N)c(F)c1 [Example 115, 4-(3-((((1S,3S)-3-aminocyclohexyl)methyl)amino)-1-(4-(4-hydroxy-4-methylpiperidin-1-yl)-2-methoxyphenyl)-1H-pyrazol-5-yl)-2-fluorobenzonitrile 2,2,2-trifluoroacetate]",1000 to 10000 nM
11,"CC1(O)CCN(c2ccc(-n3nc(NC[C@H]4CCC[C@H](N)C4)cc3-c3ccc(C#N)c(F)c3)c(F)c2)CC1 [Example 116, 4-(3-((((1S,3S)-3-aminocyclohexyl)methyl)amino)-1-(2-fluoro-4-(4-hydroxy-4-methylpiperidin-1-yl)phenyl)-1H-pyrazol-5-yl)-2-fluorobenzonitrile 2,2,2-trifluoroacetate]",< 500 nM
12,"COc1cc(N2CCN(C)C(=O)C2)ccc1-n1nc(NC[C@H]2CCC[C@H](N)C2)cc1-c1ccc(C#N)c(F)c1 [Example 117, 4-(3-((((1S,3S)-3-aminocyclohexyl)methyl)amino)-1-(2-methoxy-4-(4-methyl-3-oxopiperazin-1-yl)phenyl)-1H-pyrazol-5-yl)-2-fluorobenzonitrile]",< 500 nM
13,"COC1CCN(c2cccc(-n3nc(NC[C@H]4CCC[C@H](N)C4)cc3-c3ccc(C#N)c(F)c3)c2)CC1 [Example 118, 4-(3-((((1S,3S)-3-aminocyclohexyl)methyl)amino)-1-(3-(4-methoxypiperidin-1-yl)phenyl)-1H-pyrazol-5-yl)-2-fluorobenzonitrile 2,2,2-trifluoroacetate]",1000 to 10000 nM
14,"N#Cc1ccc(-c2cc(NC[C@H]3CCC[C@H](N)C3)nn2-c2ccc3c(c2)NCCO3)cc1F [Example 119, 4-(3-((((1S,3S)-3-aminocyclohexyl)methyl)amino)-1-(3,4-dihydro-2H-benzo[b][1,4]oxazin-6-yl)-1H-pyrazol-5-yl)-2-fluorobenzonitrile 2,2,2-trifluoroacetate]",< 500 nM
15,"COC1CCN(c2ccc(-n3nc(NC[C@H]4CCC[C@H](N)C4)cc3-c3ccc(C#N)c(F)c3)nc2)CC1 [Example 120, 4-(3-((((1S,3S)-3-aminocyclohexyl)methyl)amino)-1-(5-(4-methoxypiperidin-1-yl)pyridin-2-yl)-1H-pyrazol-5-yl)-2-fluorobenzonitrile 2,2,2-trifluoroacetate]",< 500 nM
16,"N#Cc1ccc(-c2cc(NCC34CCN(CC3)CC4)nn2-c2ccc(N3CC4CC3CS4(=O)=O)cc2)cc1F (centres unmarked) [Example 121, 4-(1-(4-(2,2-Dioxido-2-thia-5-azabicyclo[2.2.1]heptan-5-yl)phenyl)-3-((quinuclidin-4-ylmethyl)amino)-1H-pyrazol-5-yl)-2-fluorobenzonitrile 2,2,2-trifluoroacetate]",< 500 nM
17,"CC(C)Oc1cc(N2CCS(=O)(=O)CC2)ccc1-n1nc(NCC23CCN(CC2)CC3)cc1-c1ccc(C#N)c(F)c1 [Example 122, 4-(1-(4-(1,1-Dioxidothiomorpholino)-2-isopropoxyphenyl)-3-((quinuclidin-4-ylmethyl)amino)-1H-pyrazol-5-yl)-2-fluorobenzonitrile 2,2,2-trifluoroacetate]",1000 to 10000 nM
18,"N#Cc1ccc(-c2cc(NCC34CCN(CC3)CC4)nn2-c2ccc3c(c2)NCCO3)cc1F [Example 123, 4-(1-(3,4-Dihydro-2H-benzo[b][1,4]oxazin-6-yl)-3-((quinuclidin-4-ylmethyl)amino)-1H-pyrazol-5-yl)-2-fluorobenzonitrile 2,2,2-trifluoroacetate]",< 500 nM
19,"COC1CCN(c2ccc(-n3nc(NCC45CCN(CC4)CC5)cc3-c3ccc(C#N)c(F)c3)cc2)CC1 [Example 124, 2-Fluoro-4-(1-(4-(4-methoxypiperidin-1-yl)phenyl)-3-((quinuclidin-4-ylmethyl)amino)-1H-pyrazol-5-yl)benzo-nitrile 2,2,2-trifluoroacetate]",< 500 nM
20,"COC1(C)CCN(c2ccc(-n3nc(NCC45CCN(CC4)CC5)cc3-c3ccc(C#N)c(F)c3)cc2)CC1 [Example 125, 2-Fluoro-4-(1-(4-(4-methoxy-4-methylpiperidin-1-yl)phenyl)-3-((quinuclidin-4-ylmethyl)amino)-1H-pyrazol-5-yl)benzonitrile 2,2,2-trifluoroacetate]",< 500 nM
21,"COc1cc(N2CCS(=O)(=O)CC2)ccc1-n1nc(NCC23CCN(CC2)CC3)cc1-c1ccc(C#N)c(F)c1 [Example 126, 4-(1-(4-(1,1-Dioxidothiomorpholino)-2-methoxyphenyl)-3-((quinuclidin-4-ylmethyl)amino)-1H-pyrazol-5-yl)-2-fluorobenzonitrile 2,2,2-trifluoroacetate]",< 500 nM
22,"CN1CCN(c2ccc(-n3nc(NC[C@H]4CCC[C@H](NC(=N)N)C4)cc3-c3ccc(C#N)c(F)c3)cc2)CC1 [Example 127, 1-((1S,3S)-3-(((5-(4-cyano-3-fluorophenyl)-1-(4-(4-methylpiperazin-1-yl)phenyl)-1H-pyrazol-3-yl)amino)methyl)cyclohexyl)guanidine 2,2,2-trifluoroacetate]",< 500 nM
23,"COC1CCN(c2ccc(-n3nc(NC[C@H]4CCC[C@H](NC(=N)N)C4)cc3-c3ccc(C#N)c(F)c3)cc2)CC1 [Example 128, 1-((1S,3S)-3-(((5-(4-cyano-3-fluorophenyl)-1-(4-(4-methoxypiperidin-1-yl)phenyl)-1H-pyrazol-3-yl)amino)methyl)cyclohexyl)guanidine]",< 500 nM
